Test [1] concerns TNFα production in LPS-stimulated human monocytes. The test is described as follows: Cot Monocyte TNFα Cell Based Assay. As to conditions: read-out: EC50 TNF. The essentials: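 Human monocytes (5,000 cells/well) pretreated with compound for 1 hour at 37° C (0.5% DMSO), then stimulated with 50 pg/ml LPS for 4 hours. Total TNFα measured by TR-FRET after overnight antibody incubation at room temp, expressed as percent of control between unstimulated and stimulated cells.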

Test [2] deals with T1, human Cot catalytic domain (30-397 amino acids) (Homo sapiens, UniProt P41279).
T1 construct: Purified recombinant human Cot catalytic domain (30-397 amino acids) was purchased from Cama Biosciences; purchased Cama Biosciences (so in the source)
T1 sequence (P41279 30-397): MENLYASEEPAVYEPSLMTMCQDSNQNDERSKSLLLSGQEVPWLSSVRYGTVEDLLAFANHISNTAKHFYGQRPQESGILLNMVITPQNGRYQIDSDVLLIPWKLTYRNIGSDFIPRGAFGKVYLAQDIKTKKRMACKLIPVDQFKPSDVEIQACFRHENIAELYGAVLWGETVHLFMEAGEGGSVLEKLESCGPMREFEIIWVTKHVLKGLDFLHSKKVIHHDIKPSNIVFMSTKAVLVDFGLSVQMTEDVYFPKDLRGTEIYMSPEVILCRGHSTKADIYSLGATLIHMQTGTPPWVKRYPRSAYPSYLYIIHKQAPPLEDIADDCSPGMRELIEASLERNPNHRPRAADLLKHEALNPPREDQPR
The test is described as follows: High Throughput Cot Biochemical Assay (KinEASE TR-FRET). As to conditions: read-out: IC50 HTRF. The procedure, abridged:
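Recombinant human Cot catalytic domain (aa 30-397), 5 nM, with 1 μM STK3 peptide and 400 μM ATP in MOPS pH 7.0 buffer with MgOAc, DTT, BSA, NP-40, glycerol, 0.1% DMSO. Phosphorylated XL665-peptide detected by Eu-[…] antibody TR-FRET.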
On the technique in general: Time-resolved FRET reads energy transfer from a long-lived donor to a nearby acceptor.

Setting [3] is: Homo sapiens, Monocyte, TNFα in LPS-stimulated human monocytes.
Setting [4] is: Cot KinEASE TR-FRET (HTRF) biochemical assay, 400 μM ATP.
Where [5] appears, read: Cot biochemical HTRF (KinEASE TR-FRET) assay.
The mark [6] stands for this setting: Cot KinEASE TR-FRET, 400 μM ATP.

Where two headings read alike, the source gives them in different places.

Drawing on US10316017B2, “COT modulators and methods of use thereof” (Gilead Sciences, Inc., priority 2015, dated 2019), this text covers EC50 and IC50 for 22 compounds.

`[2H][C@](Nc1cc(Cl)c2ncc(C#N)c(N[C@H](CC)c3cccc(F)c3)c2c1)(c1ccc(F)cc1)c1cn(C2CC2)nn1` [Example 300, 8-chloro-6-(((S)-(1-cyclopropyl-1H-1,2,3-triazol-4-yl)(4-fluorophenyl)methyl-d)amino)-4-(((R)-1-(3-fluorophenyl)propyl)amino) quinoline-3-carbonitrile]: the EC50 in test [1] (setting [3]) stood at 126 nM. Also, the IC50 in test [2] (setting [4]) came out at 4 nM.
For `N#Cc1cnc2c(Cl)cc(N[C@@H](c3ccc(F)cc3)c3c[nH]nn3)cc2c1N[C@H](CO)c1ccccc1` [Example 433, 8-chloro-6-(((S)-(4-fluorophenyl)(1H-1,2,3-triazol-4-yl)methyl)amino)-4-(((S)-2-hydroxy-1-phenylethyl)amino)quinoline-3-carbonitrile], in test [1] (setting [3]), the concentration for a half-maximal effect (EC50) was 1380 nM. Moreover, the IC50 in test [2] (setting [5]) is 31 nM.
Regarding `[2H][C@](Nc1cc(Cl)c2ncc(C#N)c(Nc3cncc(F)c3)c2c1)(c1ccc(F)cc1)c1cn(C(C)C)nn1` [Example 339, (S)-8-chloro-6-(((4-fluorophenyl)(1-isopropyl-1H-1,2,3-triazol-4-yl)methyl-d)amino)-4-((5-fluoropyridin-3-yl)amino)quinoline-3-carbonitrile], the EC50 in test [1] (setting [3]) came to 1170 nM. For the same compound, the IC50 in test [2] (setting [4]) is 55 nM.
With `[2H][C@](Nc1cc(Cl)c2ncc(C#N)c(NNC3CCCCC3)c2c1)(c1ccc(F)cc1)c1cn(C2CC2)nn1` [Example 301, (S)-8-chloro-4-(2-cyclohexylhydrazinyl)-6-(((1-cyclopropyl-1H-1,2,3-triazol-4-yl)(4-fluorophenyl)methyl-d)amino)quinoline-3-carbonitrile], the EC50 in test [1] (setting [3]) was 1240 nM. The IC50 in test [2] (setting [4]) was over 10000 nM.
For the compound `[2H][C@](Nc1cc(C)c2ncc(C#N)c(N[C@H](CC)c3ccccc3)c2c1)(c1ccc(F)cc1)c1cn(C2CC2)nn1` [Example 221, 6-(((S)-(1-cyclopropyl-1H-1,2,3-triazol-4-yl)(4-fluorophenyl)methyl-d)amino)-8-methyl-4-(((R)-1-phenylpropyl)amino)quinoline-3-carbonitrile], the EC50 in test [1] (setting [3]) stood at 2520 nM. Further, the IC50 in test [2] (setting [4]) is 244 nM.
With `Cn1cnc(C(Nc2cc(Cl)c3ncc(C#N)c(Nc4ccc(F)c(Cl)c4)c3c2)c2ccccc2)c1` (centres unmarked) [Example 895, 8-chloro-4-((3-chloro-4-fluorophenyl)amino)-6-(((1-methyl-1H-imidazol-4-yl)(phenyl)methyl)amino) quinoline-3-carbonitrile], the 50% effective concentration (EC50) in test [1] (setting [3]) came to 1000 nM. Further, the IC50 in test [2] (setting [5]) was found to be 56 nM.
`[2H][C@](Nc1cc(Cl)c2ncc(C#N)c(NCC(C)(C)CC)c2c1)(c1ccc(F)cc1)c1cn(C2CC2)nn1` [Example 223, (S)-8-chloro-6-(((1-cyclopropyl-1H-1,2,3-triazol-4-yl)(4-fluorophenyl)methyl-d)amino)-4-((2,2-dimethylbutyl)amino)quinoline-3-carbonitrile]: the EC50 in test [1] (setting [3]) was determined as 157 nM. For the same compound, the IC50 in test [2] (setting [4]) is 5 nM.
Consider `N#Cc1cnc2c(Cl)cc(N[C@@H](c3ccc(F)cc3)c3cn(C4CC4)nn3)cc2c1NCC1CCCOC1` (stereo partly drawn) [Example 348, 8-chloro-6-(((S)-(1-cyclopropyl-1H-1,2,3-triazol-4-yl)(4-fluorophenyl)methyl)amino)-4-(((tetrahydro-2H-pyran-3-yl)methyl)amino)quinoline-3-carbonitrile], for which the concentration for a half-maximal effect (EC50) in test [1] (setting [3]) worked out at 1200 nM. In test [2] (setting [4]), the IC50 was determined as 44 nM.
For `[2H][C@](Nc1cc(F)c2ncc(C#N)c(NC(CCC#N)c3ccccc3)c2c1)(c1ccc(F)cc1)c1cn(C2CC2)nn1` (stereo partly drawn) [Example 255, 4-((3-cyano-1-phenylpropyl)amino)-6-(((S)-(1-cyclopropyl-1H-1,2,3-triazol-4-yl)(4-fluorophenyl)methyl-d)amino)-8-fluoroquinoline-3-carbonitrile], in that order: 62 nM and 5 nM.
For the compound `CC[C@H](C)Nc1c(C#N)cnc2c(Cl)cc(N[C@@H](c3ccccc3)c3cn(C4CCN(C(C)(C)C)CC4)nn3)cc12` [Example 587, 4-(((S)-sec-butyl)amino)-6-(((S)-(1-(1-(tert-butyl)piperidin-4-yl)-1H-1,2,3-triazol-4-yl)(phenyl)methyl)amino)-8-chloroquinoline-3-carbonitrile], the concentration giving a half-maximal response (EC50) in test [1] (setting [3]) stood at 3900 nM. The IC50 in test [2] (setting [5]) came out at 144 nM.
“8-chloro-4-((4-cyna-1- phenylbutyl)amino)-6-(((1- cyclopropyl-1H-1,2,3-triazol-4- yl)(4-fluorophenyl)methyl- d)amino)quinoline-3-carbonitrile [Example 981]”: in test [1] (LPS-stimulated human monocytes, TNFα TR-FRET), the EC50 stood at 318 nM. In addition, in test [2] (setting [6]), the IC50 is 22 nM.
With `CC(C)(C)N1CCC(n2cc([C@@H](Nc3cc(Cl)c4ncc(C#N)c(Nc5cscc5Cl)c4c3)c3ccccc3)nn2)CC1` [Example 612, (S)-6-(((1-(1-(tert-butyl)piperidin-4-yl)-1H-1,2,3-triazol-4-yl)(phenyl)methyl)amino)-8-chloro-4-((4-chlorothiophen-3-yl)amino)quinoline-3-carbonitrile], in test [1] (setting [3]), the EC50 is 2020 nM. For the same compound, the IC50 in test [2] (setting [5]) was found to be 84 nM.
As to `CN(c1cccc([C@H](Nc2cc(C#N)c3ncc(C#N)c(NCC(C)(C)C)c3c2)c2cn(C3CC3)nn2)c1)S(C)(=O)=O` [Example 69, (S)-N-(3-((1-cyclopropyl-1H-1,2,3-triazol-4-yl)((3,8-dicyano-4-(neopentylamino)quinolin-6-yl)amino)methyl)phenyl)-N-methylmethanesulfonamide], the EC50 in test [1] (setting [3]) came out at 124 nM. Also, in test [2] (setting [4]), the IC50 was 3 nM.
Turning to `Cn1cc([C@@H](Nc2cc(Cl)c3ncc(C#N)c(Nc4cnc(F)c(F)c4)c3c2)c2ccccc2F)nn1` [Compound 45], the EC50 in test [1] (setting [3]) was 877 nM. Further, the IC50 in test [2] (setting [4]) stood at 10 nM.
Consider `CC(Nc1c(C#N)cnc2c(Cl)cc(N[C@@H](c3ccc(Cl)cc3)c3cn(C4CCN(C(C)(C)C)CC4)nn3)cc12)c1cccnc1` (stereo partly drawn) [Example 699, 6-(((S)-(1-(1-(tert-butyl)piperidin-4-yl)-1H-1,2,3-triazol-4-yl)(4-chlorophenyl)methyl)amino)-8-chloro-4-((1-(pyridin-3-yl)ethyl)amino)quinoline-3-carbonitrile], for which the EC50 in test [1] (setting [3]) was determined as 10600 nM. Also, the 50% inhibitory concentration (IC50) in test [2] (setting [5]) came out at 379 nM.
Turning to `N#Cc1cnc2c(Cl)cc(N[C@@H](c3ccc(Cl)cc3)c3cn(C4CCN(C5COC5)CC4)nn3)cc2c1Nc1ccc(O)c(Cl)c1` [Example 700, (S)-8-chloro-4-((3-chloro-4-hydroxyphenyl)amino)-6-(((4-chlorophenyl)(1-(1-(oxetan-3-yl)piperidin-4-yl)-1H-1,2,3-triazol-4-yl)methyl)amino) quinoline-3-carbonitrile], the EC50 in test [1] (setting [3]) was determined as 2240 nM. In addition, in test [2] (setting [5]), the IC50 was 444 nM.
For the compound `N#Cc1cnc2c(Cl)cc(N[C@@H](c3ccccc3)c3cn(C4CC4)nn3)cc2c1Nc1ccc(F)c(Cl)c1` [Example 609, (S)-8-chloro-4-((3-chloro-4-fluorophenyl)amino)-6-(((1-cyclopropyl-1H-1,2,3-triazol-4-yl)(phenyl)methyl)amino) quinoline-3-carbonitrile], the EC50 in test [1] (setting [3]) stood at 384 nM. Besides, the IC50 in test [2] (setting [5]) is 7 nM.
In the case of `N#Cc1cnc2c(Cl)cc(N[C@@H](c3ccc(F)cc3)c3c[nH]nn3)cc2c1NCc1cscn1` [Example 401, (S)-8-chloro-6-(((4-fluorophenyl)(1H-1,2,3-triazol-4-yl)methyl)amino)-4-((thiazol-4-ylmethyl)amino)quinoline-3-carbonitrile], the concentration for a half-maximal effect (EC50) in test [1] (setting [3]) amounted to 4790 nM. Further, the IC50 in test [2] (setting [4]) is 758 nM.
For `[2H][C@](Nc1cc(F)c2ncc(C#N)c(NCC(C)(C)C)c2c1)(c1cccc(C#N)c1)c1cn(C2CC2)nn1` [Example 256, (S)-6-(((3-cyanophenyl)(1-cyclopropyl-1H-1,2,3-triazol-4-yl)methyl-d)amino)-8-fluoro-4-(neopentylamino)quinoline-3-carbonitrile], in that order: 121 nM and 3 nM.
Take `Cc1c(-c2ccncc2)cccc1[C@H](Nc1cc(C#N)c2ncc(C#N)c(NCC(C)(C)C)c2c1)c1cn(C2(C(F)(F)F)CC2)nn1` [Example 1137, (S)-6-(((2-methyl-3-(pyridin-4-yl)phenyl)(1-(1-(trifluoromethyl)cyclopropyl)-1H-1,2,3-triazol-4-yl)methyl)amino)-4-(neopentylamino)quinoline-3,8-dicarbonitrile]: the EC50 in test [1] (Homo sapiens, Monocyte, LPS-stimulated human monocytes, TNFα TR-FRET) was 70 nM. In test [2] (setting [6]), the IC50 was 5 nM.
As to `CC(C)(C)N1CCC(n2cc([C@@H](Nc3cc(Cl)c4ncc(C#N)c(Nc5ccc(OCc6ccccc6)c(Cl)c5)c4c3)c3ccc(Cl)cc3)nn2)CC1` [Example 654, (S)-4-((4-(benzyloxy)-3-chlorophenyl)amino)-6-(((1-(1-(tert-butyl)piperidin-4-yl)-1H-1,2,3-triazol-4-yl)(4-chlorophenyl)methyl)amino)-8-chloroquinoline-3-carbonitrile], the EC50 in test [1] (setting [3]) was over 50000 nM. Further, the half-inhibitory concentration (IC50) in test [2] (setting [5]) was determined as 2040 nM.
With `[2H][C@](Nc1cc(Cl)c2ncc(C#N)c(NC3COC3)c2c1)(c1ccc(F)cc1)c1cn(C2CC2)nn1` [Example 201, (S)-8-chloro-6-(((1-cyclopropyl-1H-1,2,3-triazol-4-yl)(4-fluorophenyl)methyl-d)amino)-4-(oxetan-3-ylamino) quinoline-3-carbonitrile], in test [1] (setting [3]), the EC50 worked out at 2540 nM. In addition, in test [2] (setting [4]), the IC50 came to 251 nM.

Broadly, the EC50 is the concentration needed to bring the measured effect to its halfway point. As usually defined, the IC50 is the concentration that gives 50% inhibition.
